Data: patent publication US12577226B2, “Compounds for treating Huntington's disease” (PTC THERAPEUTICS, INC., priority 2019, dated 2026)

Each molecule was assayed on Endogenous Huntingtin Protein (capture with MW1 (expanded polyglutamine) or MAB2166 antibody) (assay: Endogenous Huntingtin Protein Assay (ELISA-based Meso Scale Discovery electrochemiluminescence assay)). Conditions: MSD electrochemiluminescence platform.
Format: cell-based
Procedure, shortened: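 MSD electrochemiluminescence sandwich immunoassay: plates coated with 1 μg/mL MW1 or MAB2166 capture antibody, samples incubated overnight at 4 °C. Detection with rabbit monoclonal #5656S then SULFO-TAG anti-rabbit (each 0.25 μg/mL, 1 h RT).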

Molecule	IC50 [nM]
CC(C)(C)N[C@H]1CCN(c2ncc(-c3ncc(-c4c[nH]nc4F)cc3O)nn2)C1 [Compound 145, 2-{3-[(3S)-3-(tert-butylamino)pyrrolidin-1-yl]-1,2,4-triazin-6-yl}-5-(3-fluoro-1H-pyrazol-4-yl)pyridin-3-ol]	≤ 100
[2H]C([2H])([2H])n1cc(-c2cnc(-c3ccc(N4CC[C@@H](NC(C)(C)C)C4)nn3)c(O)c2)cn1 [Compound 23, 2-{6-[(3R)-3-(tert-butylamino)pyrrolidin-1-yl]pyridazin-3-yl}-5-[1-(^2H3)methyl-1H-pyrazol-4-yl]pyridin-3-ol]	≤ 100
CC(C)C1CN(c2ccc(-c3ncc(/C=C/c4cn[nH]c4)cc3O)nn2)CCN1 (stereo not shown) [Compound 130, 2-{6-[3-(propan-2-yl)piperazin-1-yl]pyridazin-3-yl}-5-[(E)-2-(1H-pyrazol-4-yl)ethenyl]pyridin-3-ol]	500 to 1000
CN[C@@H]1CCN(c2ccc(-c3ncc(-c4cc(OC)ncn4)cc3O)nn2)C1 [Compound 70, 5-(6-methoxypyrimidin-4-yl)-2-{6-[(3R)-3-(methylamino)pyrrolidin-1-yl]pyridazin-3-yl}pyridin-3-ol]	≤ 100
Cc1ncc(-c2cnc(-c3ccc(N4CC[C@@H](NC(C)(C)C)C4)nn3)c(O)c2)o1 [Compound 76, 2-{6-[(3R)-3-(tert-butylamino)pyrrolidin-1-yl]pyridazin-3-yl}-5-(2-methyl-1,3-oxazol-5-yl)pyridin-3-ol]	≤ 100
Cn1cc2cc(-c3cnc(-c4ccc(OC5CC(C)(C)NC(C)(C)C5)nn4)c(O)c3)cc(C#N)c2n1 [Compound 62, 5-[6-(6-{[2,2,6,6-tetramethylpiperidin-4-yl]oxy}pyridazin-3-yl)-5-hydroxypyridin-3-yl]-2-methyl-2H-indazole-7-carbonitrile]	≤ 100
CC1(C)C[C@H](Nc2ccc(-c3ncc(-c4cn[nH]c4)cc3O)nn2)[C@@H](F)C(C)(C)N1 [Compound 8, 2-(6-{[(3R,4S)-3-fluoro-2,2,6,6-tetramethylpiperidin-4-yl]amino}pyridazin-3-yl)-5-(1H-pyrazol-4-yl)pyridin-3-ol]	≤ 100
[2H]C([2H])([2H])n1cc(-c2cnc(-c3cnc(N(C)C4CC(C)(C)NC(C)(C)C4)nn3)c(O)c2)cn1 [Compound 142, 5-[1-(^2H3)methyl-1H-pyrazol-4-yl]-2-{3-[methyl(2,2,6,6-tetramethylpiperidin-4-yl)amino]-1,2,4-triazin-6-yl}pyridin-3-ol]	≤ 100
Oc1cc(-c2cn[nH]c2)cnc1-c1ccc(OC2CC3(CC3)NC3(CC3)C2)nn1 (stereo not shown) [Compound 31, 2-{6-[(4-azadispiro[2.1.2^5.3^3]decan-9-yl)oxy]pyridazin-3-yl}-5-(1H-pyrazol-4-yl)pyridin-3-ol]	100 to 500
[2H]C([2H])([2H])n1cc(-c2cnc(-c3ccc(O[C@@H]4C[C@H](C)NC5(CC5)C4)nn3)c(O)c2)cn1 [Compound 83, 2-(6-{[(5S,7R)-5-methyl-4-azaspiro[2.5]octan-7-yl]oxy}pyridazin-3-yl)-5-[1-(^2H3)methyl-1H-pyrazol-4-yl]pyridin-3-ol]	100 to 500
Cc1cn2cc(-c3cnc(-c4ccc(N5C[C@@H](C)N[C@@H](C)C5)nn4)c(O)c3)ccc2n1 [Compound 92, 2-{6-[(3R,5S)-3,5-dimethylpiperazin-1-yl]pyridazin-3-yl}-5-(2-methylimidazo[1,2-a]pyridin-6-yl)pyridin-3-ol and 2-{6-[(3S,5R)-3,5-dimethylpiperazin-1-yl]pyridazin-3-yl}-5-(2-methylimidazo[1,2-a]pyridin-6-yl)pyridin-3-ol]	≤ 100
CC(C)[C@H]1CN(c2ccc(-c3ncc(-c4cc(F)c5nn(C)cc5c4)cc3O)nn2)CCN1 [Compound 122, 5-(7-fluoro-2-methyl-2H-indazol-5-yl)-2-{6-[(3S)-3-(propan-2-yl)piperazin-1-yl]pyridazin-3-yl}pyridin-3-ol]	≤ 100
Cn1ccc(-c2cnc(-c3ccc(O[C@H]4CC(C)(C)NC(C)(C)[C@H]4F)nn3)c(O)c2)cc1=O (single isomer, unassigned) [Compound 37, 6-(6-{[(3R,4S)-3-fluoro-2,2,6,6-tetramethylpiperidin-4-yl]oxy}pyridazin-3-yl)-5-hydroxy-1′-methyl[3,4′-bipyridin]-2′(1′H)-one or 6-(6-{[(3S,4R)-3-fluoro-2,2,6,6-tetramethylpiperidin-4-yl]oxy}pyridazin-3-yl)-5-hydroxy-1′-methyl[3,4′-bipyridin]-2′(1′H)-one]	100 to 500
5-[(2-methylpyrimidin-5-yl)amino]-2-{6-[(3R)-3-(propan-2-yl)piperazin-1-yl]pyridazin-3-yl}pyridin-3-ol and 5-[(2-methylpyrimidin-5-yl)amino]-2-{6-[(3S)-3-(propan-2-yl)piperazin-1-yl]pyridazin-3-yl}pyridin-3-ol [Compound 134]	500 to 1000
[2H]C([2H])([2H])n1cc(-c2cnc(-c3ccc(O[C@H]4C[C@]5(C)CC[C@](C)(C4)N5)nn3)c(O)c2)cn1 [Compound 33, 2-(6-{[(1R,3s,5S)-1,5-dimethyl-8-azabicyclo[3.2.1]octan-3-yl]oxy}pyridazin-3-yl)-5-[1-(^2H3)methyl-1H-pyrazol-4-yl]pyridin-3-ol and 2-(6-{[(1S,3r,5R)-1,5-dimethyl-8-azabicyclo[3.2.1]octan-3-yl]oxy}pyridazin-3-yl)-5-[1-(^2H3)methyl-1H-pyrazol-4-yl]pyridin-3-ol]	≤ 100
CN(c1ccc(-c2ncc(-n3ccnc3)cc2O)nn1)C1CC(C)(C)NC(C)(C)C1 [Compound 15, 5-(1H-imidazol-1-yl)-2-{6-[methyl(2,2,6,6-tetramethylpiperidin-4-yl)amino]pyridazin-3-yl}pyridin-3-ol]	≤ 100
CC1(C)CC(Oc2ccc(-c3ncc(-c4ccc5nccn5n4)cc3O)nn2)CC(C)(C)N1 [Compound 65, 5-(imidazo[1,2-b]pyridazin-6-yl)-2-{6-[(2,2,6,6-tetramethylpiperidin-4-yl)oxy]pyridazin-3-yl}pyridin-3-ol]	≤ 100
Cc1cn2cc(-c3cnc(-c4ccc(N5C[C@@H](C)N[C@@H](C)C5)nn4)c(O)c3)cnc2n1 [Compound 115, 2-{6-[(3R,5S)-3,5-dimethylpiperazin-1-yl]pyridazin-3-yl}-5-(2-methylimidazo[1,2-a]pyrimidin-6-yl)pyridin-3-ol and 2-{6-[(3S,5R)-3,5-dimethylpiperazin-1-yl]pyridazin-3-yl}-5-(2-methylimidazo[1,2-a]pyrimidin-6-yl)pyridin-3-ol]	100 to 500
Cc1cnc(Nc2cnc(-c3cnc(N4CCN[C@@H](C5CC5)C4)nn3)c(O)c2)cn1 [Compound 160, 2-{3-[(3S)-3-cyclopropylpiperazin-1-yl]-1,2,4-triazin-6-yl}-5-[(5-methylpyrazin-2-yl)amino]pyridin-3-ol]	≤ 100
Oc1cc(-c2cn[nH]c2)cnc1-c1ccc(N2CCNC(C3CC3)C2)nn1 (stereo not shown) [Compound 123, 2-[6-(3-cyclopropylpiperazin-1-yl)pyridazin-3-yl]-5-(1H-pyrazol-4-yl)pyridin-3-ol]	≤ 100
CC1(C)CN(c2ccc(-c3ncc(-c4cn[nH]c4)cc3O)nn2)CC(C)(C)N1 [Compound 88, 5-(1H-pyrazol-4-yl)-2-[6-(3,3,5,5-tetramethylpiperazin-1-yl)pyridazin-3-yl]pyridin-3-ol]	100 to 500
[2H]C([2H])([2H])n1cc(-c2cnc(-c3ccc(N4CCN[C@@H](C5CC5)C4)nn3)c(O)c2)cn1 [Compound 129, 2-{6-[(3S)-3-cyclopropylpiperazin-1-yl]pyridazin-3-yl}-5-[1-(^2H3)methyl-1H-pyrazol-4-yl]pyridin-3-ol]	≤ 100
2-(6-{[(3R,4S)-3-fluoro-2,2,6,6-tetramethylpiperidin-4-yl]oxy}pyridazin-3-yl)-5-(2-methylimidazo[1,2-a]pyridin-6-yl)pyridin-3-ol and 2-(6-{[(3S,4R)-3-fluoro-2,2,6,6-tetramethylpiperidin-4-yl]oxy}pyridazin-3-yl)-5-(2-methylimidazo[1,2-a]pyridin-6-yl)pyridin-3-ol [Compound 43]	≤ 100
C[C@]12CC[C@](C)(C[C@@H](Oc3ccc(-c4ncc(-c5cncnc5)cc4O)nn3)C1)N2 [Compound 36, 2-(6-{[(1R,3s,5S)-1,5-dimethyl-8-azabicyclo[3.2.1]octan-3-yl]oxy}pyridazin-3-yl)-5-(pyrimidin-5-yl)pyridin-3-ol and 2-(6-{[(1S,3r,5R)-1,5-dimethyl-8-azabicyclo[3.2.1]octan-3-yl]oxy}pyridazin-3-yl)-5-(pyrimidin-5-yl)pyridin-3-ol]	500 to 1000
CC1(C)C[C@H](Oc2ccc(-c3ncc(-c4cn[nH]c4)cc3O)nn2)[C@H](F)C(C)(C)N1 (single isomer, unassigned) [Compound 51, 2-(6-{[(3R,4S)-3-fluoro-2,2,6,6-tetramethylpiperidin-4-yl]oxy}pyridazin-3-yl)-5-(1H-pyrazol-4-yl)pyridin-3-ol or 2-(6-{[(3S,4R)-3-fluoro-2,2,6,6-tetramethylpiperidin-4-yl]oxy}pyridazin-3-yl)-5-(1H-pyrazol-4-yl)pyridin-3-ol]	≤ 100
COc1cc(-c2cnc(-c3ccc(N4C[C@@H](C)N[C@@H](C)C4)nn3)c(O)c2)cc2cn(C)nc12 [Compound 87, 2-{6-[(3R,5S)-3,5-dimethylpiperazin-1-yl]pyridazin-3-yl}-5-(7-methoxy-2-methyl-2H-indazol-5-yl)pyridin-3-ol and 2-{6-[(3S,5R)-3,5-dimethylpiperazin-1-yl]pyridazin-3-yl}-5-(7-methoxy-2-methyl-2H-indazol-5-yl)pyridin-3-ol]	≤ 100
[2H]C([2H])([2H])n1cc(-c2cnc(-c3ccc(OC4CC(C)(C)NC(C)(C)C4)nn3)c(O)c2)cn1 [Compound 3, 5-[1-(^2H3)methyl-1H-pyrazol-4-yl]-2-{6-[(2,2,6,6-tetramethylpiperidin-4-yl)oxy]pyridazin-3-yl}pyridin-3-ol]	≤ 100
COc1cc(-c2cnc(-c3cnc(N4CCN(C)CC4)nn3)c(O)c2)cc2cn(C)nc12 [Compound 150, 5-(7-methoxy-2-methyl-2H-indazol-5-yl)-2-[3-(4-methylpiperazin-1-yl)-1,2,4-triazin-6-yl]pyridin-3-ol]	≤ 100
